Data published in patent US11046696B2, “Fused pyrimidine compound or salt thereof” (TAIHO PHARMACEUTICAL CO., LTD., priority 2016, dated 2021).

test system: human thyroid cancer cell line TT with RET activating mutation; experiment: In vivo antitumor effect, mice subcutaneously implanted with TT cells; parameters: species or system BALB/cA Jcl-nu/nu male mice; conditions: 100 mg/kg/day group, grouping day (day 0)

SMILES	TV (mm^3) Day 0 Mean ± SE
COCc1ccc(NC(=O)c2c(C#CCN3CCOCC3)n(C3(C)CC3)c3ncnc(N)c23)cc1 [Example 85, 4-amino-N-[4-(methoxymethyl)phenyl]-7-(1-methylcyclopropyl)-6-(3-morpholinoprop-1-yn-1-yl)-7H-pyrrolo[2,3-d]pyrimidine-5-carboxamide]	169.45 ± 16.73 mm^3

test system: not given; experiment: not given; conditions: mouse, microsomes, 0.5 h, 1 μM

SMILES	Remaining (%)
C/C=C/c1ccc(NC(=O)c2c(OCC)n(C3(C)CC3)c3ncnc(N)c23)cc1 [Example 117, (E)-4-amino-6-ethoxy-7-(1-methylcyclopropyl)-N-(4-(prop-1-en-1-yl)phenyl)-7H-pyrrolo[2,3-d]pyrimidine-5-carboxamide]	53%

test system: not listed separately; experiment: Evaluation of stability in liver microsome; conditions: mouse liver microsome, 1 μM, 37° C. for 30 minutes

SMILES	Remaining (%)
COCc1ccc(NC(=O)c2c(C#Cc3ccn[nH]3)n(C3(C)CC3)c3ncnc(N)c23)cc1 [Example 129, 6-((1H-pyrazol-5-yl)ethynyl)-4-amino-N-(4-(methoxymethyl)phenyl)-7-(1-methylcyclopropyl)-7H-pyrrolo[2,3-d]pyrimidine-5-carboxamide]	54%
COCc1ccc(NC(=O)c2c(-c3ccc(F)nc3)n(C3(C)CC3)c3ncnc(N)c23)cc1 [Example 190, 4-amino-6-(6-fluoropyridin-3-yl)-N-(4-(methoxymethyl)phenyl)-7-(1-methylcyclopropyl)-7H-pyrrolo[2,3-d]pyrimidine-5-carboxamide]	58%
COCc1ccc(NC(=O)c2cn(C(C)(C)CF)c3ncnc(N)c23)cc1F [Example 41, 4-amino-7-(1-fluoro-2-methylpropan-2-yl)-N-(3-fluoro-4-(methoxymethyl)phenyl)-7H-pyrrolo[2,3-d]pyrimidine-5-carboxamide]	56%
COCc1ccc(NC(=O)c2c(OCC(C)(C)OC)n(C3(C)CC3)c3ncnc(N)c23)cc1 [Example 137, 4-amino-6-(2-methoxy-2-methylpropoxy)-N-(4-(methoxymethyl)phenyl)-7-(1-methylcyclopropyl)-7H-pyrrolo[2,3-d]pyrimidine-5-carboxamide]	53%
COCc1ccc(NC(=O)c2c(C#Cc3cn(C)nc3C)n(C3(C)CC3)c3ncnc(N)c23)cc1 [Example 181, 4-amino-6-((1,3-dimethyl-1H-pyrazol-4-yl)ethynyl)-N-(4-(methoxymethyl)phenyl)-7-(1-methylcyclopropyl)-7H-pyrrolo[2,3-d]pyrimidine-5-carboxamide]	62%
COCc1ccc(NC(=O)c2c(C#CC(C)(C)N)n(C3(C)CC3)c3ncnc(N)c23)cc1 [Example 134, 4-amino-6-(3-amino-3-methylbut-1-yn-1-yl)-N-(4-(methoxymethyl)phenyl)-7-(1-methylcyclopropyl)-7H-pyrrolo[2,3-d]pyrimidine-5-carboxamide]	79%
COCc1ccc(NC(=O)c2c(C#Cc3cnn(C)c3C)n(C3(C)CC3)c3ncnc(N)c23)cc1 [Example 182, 4-amino-6-((1,5-dimethyl-1H-pyrazol-4-yl)ethynyl)-N-(4-(methoxymethyl)phenyl)-7-(1-methylcyclopropyl)-7H-pyrrolo[2,3-d]pyrimidine-5-carboxamide]	61%
CCOc1c(C(=O)Nc2ccc(-c3ccco3)cc2)c2c(N)ncnc2n1C1(C)CC1 [Example 116, 4-amino-6-ethoxy-N-(4-(furan-2-yl)phenyl)-7-(1-methylcyclopropyl)-7H-pyrrolo[2,3-d]pyrimidine-5-carboxamide]	55%
COCc1ccc(NC(=O)c2c(C#Cc3cnc[nH]3)n(C3(C)CC3)c3ncnc(N)c23)cc1 [Example 191, 6-((1H-imidazol-5-yl)ethynyl)-4-amino-N-(4-(methoxymethyl)phenyl)-7-(1-methylcyclopropyl)-7H-pyrrolo[2,3-d]pyrimidine-5-carboxamide]	53%
CCn1cc(C#Cc2c(C(=O)Nc3ccc(COC)cc3)c3c(N)ncnc3n2C2(C)CC2)cn1 [Example 118, 4-amino-6-((1-ethyl-1H-pyrazol-4-yl)ethynyl)-N-(4-(methoxymethyl)phenyl)-7-(1-methylcyclopropyl)-7H-pyrrolo[2,3-d]pyrimidine-5-carboxamide]	73%

Other lines, results leading:

Remaining (%)	SMILES
58%	[2H]C([2H])([2H])OCc1ccc(NC(=O)c2cn(C(C)(C)C)c3ncnc(N)c23)cc1 [Example 35, 4-amino-7-(tert-butyl)-N-(4-((methoxy-d3)-methyl)phenyl)-7H-pyrrolo[2,3-d]pyrimidine-5-carboxamide]
76%	COCc1ccc(NC(=O)c2c(OCC(C)OC)n(C3(C)CC3)c3ncnc(N)c23)cc1 (stereo not drawn) [Example 100, 4-amino-N-(4-(methoxymethyl)phenyl)-6-(2-methoxypropoxy)-7-(1-methylcyclopropyl)-7H-pyrrolo[2,3-d]pyrimidine-5-carboxamide]
67%	COCc1ccc(NC(=O)c2cn(C3(C4CC4)CC3)c3ncnc(N)c23)cc1 [Example 49, 7-{[1,1-bi(cyclopropane)]-1-yl}-4-amino-N-(4-(methoxymethyl)phenyl)-7H-pyrrolo[2,3-d]pyrimidine-5-carboxamide]
71%	COCc1ccc(NC(=O)c2c(OC[C@@H](C)OC)n(C3(C)CC3)c3ncnc(N)c23)cc1 [Example 96, (R)-4-amino-N-(4-(methoxymethyl)phenyl)-6-(2-methoxypropoxy)-7-(1-methylcyclopropyl)-7H-pyrrolo[2,3-d]pyrimidine-5-carboxamide]
52%	COCc1ccc(NC(=O)c2c(C#CC(O)C3CC3)n(C3(C)CC3)c3ncnc(N)c23)cc1 (stereo not drawn) [Example 104, 4-amino-6-(3-cyclopropyl-3-hydroxyprop-1-yn-1-yl)-N-(4-(methoxymethyl)phenyl)-7-(1-methylcyclopropyl)-7H-pyrrolo[2,3-d]pyrimidine-5-carboxamide]
62%	COCc1ccc(NC(=O)c2c(Cl)n(C3(C)CC3)c3ncnc(N)c23)cc1 [Example 56, 4-amino-6-chloro-N-[4-(methoxymethyl)phenyl]-7-(1-methylcyclopropyl)-7H-pyrrolo[2,3-d]pyrimidine-5-carboxamide]
72%	CCc1c(C(=O)Nc2ccc(COC)cc2)c2c(N)ncnc2n1C1(C)CC1 [Example 207, 4-amino-6-ethyl-N-(4-(methoxymethyl)phenyl)-7-(1-methylcyclopropyl)-7H-pyrrolo[2,3-d]pyrimidine-5-carboxamide]
58%	COCc1ccc(NC(=O)c2cn(C3(C)CC3)c3ncnc(N)c23)cc1F [Example 48, 4-amino-N-(3-fluoro-4-(methoxymethyl)phenyl)-7-(1-methylcyclopropyl)-7H-pyrrolo[2,3-d]pyrimidine-5-carboxamide]
79%	C=Cc1c(C(=O)Nc2ccc(COC)cc2)c2c(N)ncnc2n1C1(C)CC1 [Example 65, 4-amino-N-(4-(methoxymethyl)phenyl)-7-(1-methylcyclopropyl)-6-vinyl-7H-pyrrolo[2,3-d]pyrimidine-5-carboxamide]
89%	COCc1ccc(NC(=O)c2c(C(C)=O)n(C3(C)CC3)c3ncnc(N)c23)cc1 [Example 64, 6-acetyl-4-amino-N-(4-(methoxymethyl)phenyl)-7-(1-methylcyclopropyl)-7H-pyrrolo[2,3-d]pyrimidine-5-carboxamide]
69%	COCc1ccc(NC(=O)c2c(F)n(C3(C)CC3)c3ncnc(N)c23)cc1 [Example 69, 4-amino-6-fluoro-N-(4-(methoxymethyl)phenyl)-7-(1-methylcyclopropyl)-7H-pyrrolo[2,3-d]pyrimidine-5-carboxamide]
68%	COCc1ccc(NC(=O)c2c(C3=CCOCC3)n(C3(C)CC3)c3ncnc(N)c23)cc1 [Example 203, 4-amino-6-(3,6-dihydro-2H-pyran-4-yl)-N-(4-(methoxymethyl)phenyl)-7-(1-methylcyclopropyl)-7H-pyrrolo[2,3-d]pyrimidine-5-carboxamide]
